Measured values published in patent US10144742B2 (Millennium Pharmaceuticals, Inc., priority 2014, dated 2018).
Like-named read-outs stand apart in the source and are kept apart here.

What was measured:
[1] = target: hNAMPT protein (Homo sapiens (Human), UniProt P43490); experiment: NAMPT enzyme assay (TR-FRET/HTRF, BodiPY ligand, anti 6His-Tb); format: binding; settings: for IC50: NAMPT IC50 range class, read-out: IC50; for inhibition at 1 µM: read-out: Percent Inhibition
Procedure, shortened: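 TR-FRET binding assay in which His-tagged human NAMPT with anti-6His-Tb is displaced by compound from a BodiPY ligand, incubated 1 h at rt in the dark. Excitation was at 320 nm, with the 520/486 nm emission ratio read. IC50 was fitted from inhibition relative to DMSO controls.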

[2] = test system: PC3 cells; experiment: PC3 growth inhibition (Cell-titer glo, 72 hours); format: cell-based; settings: Homo sapiens, PC-3, PC3 cells, 72 hours, Cell-titer glo, read-out: Percent Inhibition (PC3 growth inhibition); for inhibition at 1 µM: compound concentration 1 μM; for inhibition at 1.667 µM: compound concentration 1.667 μM
Procedure, shortened: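 PC3 cells in RPMI1640 seeded overnight at 37 °C, 5% CO2, then exposed to compound diluted in AIM serum-free medium for 72 h. Viability by CellTiter-Glo luminescence vs DMSO controls; single-concentration % remaining viability (1 μM or 1.667 μM), or GI50/LD50 from curves.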

Sequence of hNAMPT protein (P43490 whole entry): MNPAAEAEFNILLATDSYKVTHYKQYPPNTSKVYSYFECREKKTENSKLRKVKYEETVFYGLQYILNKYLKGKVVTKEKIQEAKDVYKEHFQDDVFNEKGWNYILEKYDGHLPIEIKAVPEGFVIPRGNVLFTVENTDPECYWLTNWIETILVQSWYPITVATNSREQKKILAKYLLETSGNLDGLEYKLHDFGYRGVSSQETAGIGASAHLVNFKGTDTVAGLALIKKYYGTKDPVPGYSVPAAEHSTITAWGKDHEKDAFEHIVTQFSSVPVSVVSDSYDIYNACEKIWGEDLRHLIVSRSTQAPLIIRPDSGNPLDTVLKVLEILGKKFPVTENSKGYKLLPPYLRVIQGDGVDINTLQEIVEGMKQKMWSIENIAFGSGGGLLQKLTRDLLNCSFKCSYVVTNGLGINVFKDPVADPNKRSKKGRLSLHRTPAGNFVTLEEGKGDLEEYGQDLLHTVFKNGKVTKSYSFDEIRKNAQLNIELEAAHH

| SMILES | IC50 [1] | inhibition at 1 µM ([1]; compound concentration 1 μM) | inhibition at 1 µM [2] | inhibition at 1 µM [1] | inhibition at 1.667 µM [2] |
| --- | --- | --- | --- | --- | --- |
| O=C(NCCCn1ccnc1)c1ccc2nc(N3CCN4C(=O)CCC4C3)c(-c3ccccc3)nc2c1 (stereo not drawn) [Compound I-250, N-[3-(1H-imidazol-1-yl)propyl]-2-(6-oxohexahydropyrrolo[1,2-a]pyrazin-2(1H)-yl)-3-phenylquinoxaline-6-carboxamide] | 100 to 500 nM | 86% | -6% |  |  |
| O=C(NCCCn1ccnc1)c1ccc2nc(-c3ccccc3)c(-c3ccncc3)nc2c1 [Compound I-251, N-[3-(1H-imidazol-1-yl)propyl]-2-phenyl-3-(pyridin-4-yl)quinoxaline-6-carboxamide] | 100 to 500 nM | 65% | 1% |  |  |
| O=C(NCCCn1ccnc1)c1ccc2nc(-c3ccccc3)c(-c3ccc4c(c3)CCO4)nc2c1 [Compound I-252, 3-(2,3-dihydro-1-benzofuran-5-yl)-N-[3-(1H-imidazol-1-yl)propyl]-2-phenylquinoxaline-6-carboxamide] | 500 to 1000 nM | 53% | 2% |  |  |
| CC(C)Oc1nc2ccc(C(=O)NCCCc3ncc[nH]3)cc2nc1-c1ccc(F)cc1 [Compound I-253, 3-(4-Fluorophenyl)-N-[3-(1H-imidazol-2-yl)propyl]-2-isopropoxyquinoxaline-6-carboxamide] | < 100 nM |  |  | 93% | 2% |
| CC(=O)Nc1ccc(-c2nc3ccc(C(=O)NCCCn4ccnc4)cc3nc2-c2ccccc2)cc1 [Compound I-254, 2-(4-acetamidophenyl)-N-[3-(1H-iniidazol-1-yl)propyl]-3-phenylquinoxaline-6-carboxamide] | 100 to 500 nM | 84% | -8% |  |  |
| O=C(NCCCc1ncc[nH]1)c1ccc2nc(N3CCC(N4CCOCC4)CC3)c(-c3ccc(Cl)cc3)nc2c1 [Compound I-255, 3-(4-chlorophenyl)-N-[3-(1H-imidazol-2-yl)propyl]-2-[4-(morpholin-4-yl)piperidin-1-yl]quinoxaline-6-carboxamide] | < 100 nM | > 99% |  |  | 2% |
| O=C(NCCCc1ncc[nH]1)c1ccc2nc(N3CCSCC3)c(-c3ccc(F)cc3)nc2c1 [Compound I-256, 3-(4-fluorophenyl)-N-[3-(1H-imidazol-2-yl)propyl]-2-(thiomorpholin-4-yl)quinoxaline-6-carboxamide] | < 100 nM | 97% |  |  | 2% |
| O=C(NCCCn1ccnc1)c1ccc2nc(-c3ccccc3Cl)c(-c3ccccc3)nc2c1 [Compound I-257, 2-(2-chlorophenyl)-N-[3-(1H-imidazol-1-yl)propyl]-3-phenylquinoxaline-6-carboxamide] | 100 to 500 nM | 77% | -8% |  |  |
| O=C(NCCCn1ccnc1)c1ccc2nc(-c3ccc4nccn4c3)c(-c3ccccc3)nc2c1 [Compound I-258, N-[3-(1H-imidazol-1-yl)propyl]-2-(imidazo[1,2-a]pyridin-6-yl)-3-phenylquinoxaline-6-carboxamide] | 100 to 500 nM | 67% | -8% |  |  |
| CN1CCN(Cc2nc3ccc(C(=O)NCCCn4ccnc4)cc3nc2-c2ccccc2)CC1 [Compound I-259, N-[3-(1H-imidazol-1-yl)propyl]-2-[(4-methylpiperazin-1-yl)methyl]-3-phenylquinoxaline-6-carboxamide] | 1000 to 2000 nM | 44% | -7% |  |  |
| O=C(NCCCn1ccnc1)c1ccc2nc(-c3ccccc3)c(-c3ccccc3)nc2c1 [Compound I-261, N-[3-(1H-imidazol-1-yl)propyl]-2,3-diphenylquinoxaline-6-carboxamide] | 100 to 500 nM | 67% | -1% |  |  |
| O=C(NCCCn1ccnc1)c1ccc2nc(N3CCCCCC3)c(-c3ccccc3)nc2c1 [Compound I-262, 2-(azepan-1-yl)-N-[3-(1H-imidazol-1-yl)propyl]-3-phenylquinoxaline-6-carboxamide] | < 100 nM | 91% | -7% |  |  |
| NC(=O)c1cccc(-c2nc3cc(C(=O)NCCCn4ccnc4)ccc3nc2-c2ccccc2)c1 [Compound I-263, 3-(3-carbamoylphenyl)-N-[3-(1H-imidazol-1-yl)propyl]-2-phenylquinoxaline-6-carboxamide] | 100 to 500 nM | 81% | 1% |  |  |
| CC(=O)Nc1ccccc1-c1nc2ccc(C(=O)NCCCn3ccnc3)cc2nc1-c1ccccc1 [Compound I-264, 2-(2-acetamidophenyl)-N-[3-(1H-imidazol-1-yl)propyl]-3-phenylquinoxaline-6-carboxamide] | 1000 to 2000 nM | 41% | -8% |  |  |
| O=C(NCCCn1ccnc1)c1ccc2nc(-c3ccccc3)c(N3CCCCCC3)nc2c1 [Compound I-265, 3-(azepan-1-yl)-N-[3-(1H-imidazol-1-yl)propyl]-2-phenylquinoxaline-6-carboxamide] | 2000 to 10000 nM | 17% | 11% |  |  |
| O=C(c1ccc2nc(-c3ccc(F)cc3)c(-c3ccc(F)cc3)nc2c1)N1CCc2nocc2C1 [Compound I-266, [2,3-bis(4-fluorophenyl)quinoxalin-6-yl](6,7-dihydroisoxazolo[4,3-c]pyridin-5(4H)-yl)methanone] | 2000 to 10000 nM | 15% | 104% |  |  |
| O=C(NCCCn1ccnc1)c1ccc2nc(N3CCC(N4CCOCC4)C3)c(-c3ccccc3)nc2c1 (stereo not drawn) [Compound I-267, N-[3-(1H-imidazol-1-yl)propyl]-2-[3-(morpholin-4-yl)pyrrolidin-1-yl]-3-phenylquinoxaline-6-carboxamide] | 100 to 500 nM | 81% | -7% |  |  |
| O=C(NCCCn1ccnc1)c1ccc2nc(N3CCC4(CC3)Cc3ccccc3O4)c(-c3ccccc3)nc2c1 [Compound I-268, N-[3-(1H-imidazol-1-yl)propyl]-3-phenyl-2-(1′H,3H-spiro[1-benzofuran-2,4′-piperidin]-1′-yl)quinoxaline-6-carboxamide] | 1000 to 2000 nM | 63% | -6% |  |  |
| O=C(NCCc1cccnc1)c1ccc2nc(-c3ccc(F)cc3)c(-c3ccc(F)cc3)nc2c1 [Compound I-269, 2,3-bis(4-fluorophenyl)-N-[2-(pyridin-3-yl)ethyl]quinoxaline-6-carboxamide] | 100 to 500 nM | 73% | 0% |  |  |
| O=C(NCCn1ccnc1)c1ccc2nc(-c3ccc(F)cc3)c(-c3ccc(F)cc3)nc2c1 [Compound I-270, 2,3-bis(4-fluorophenyl)-N-[2-(1H-imidazol-1-yl)ethyl]quinoxaline-6-carboxamide] | 1000 to 2000 nM | 47% | 111% |  |  |
| O=C(NCCCn1ccnc1)c1ccc2nc(N3CCC(C4CCNCC4)CC3)c(-c3ccccc3)nc2c1 [Compound I-271, 2-(4,4′-Bipiperidin-1-yl)-N-[3-(1H-imidazol-1-yl)propyl]-3-phenylquinoxaline-6-carboxamide] | < 100 nM |  | -2% | 102% |  |
| O=C(NCCCn1ccnc1)c1ccc2nc(N3CCC(N4CCNC4=O)CC3)c(-c3ccccc3)nc2c1 [Compound I-272, N-[3-(1H-imidazol-1-yl)propyl]-2-[4-(2-oxoimidazolidin-1-yl)piperidin-1-yl]-3-phenylquinoxaline-6-carboxamide] | 100 to 500 nM | 72% | -6% |  |  |
| O=C(NCCCc1ncc[nH]1)c1ccc2nc(Oc3ccccc3)c(-c3ccc(Cl)cc3)nc2c1 [Compound I-273, 3-(4-Chlorophenyl)-N-[3-(1H-imidazol-2-yl)propyl]-2-phenoxyquinoxaline-6-carboxamide] | < 100 nM | 88% |  |  | 2% |
| O=C(NCCCn1ccnc1)c1ccc2nc(NC3CCC3)c(-c3ccccc3)nc2c1 [Compound I-274, 2-(cyclobutylamino)-N-[3-(1H-imidazol-1-yl)propyl]-3-phenylquinoxaline-6-carboxamide] | 2000 to 10000 nM | 25% | -5% |  |  |
| O=C(NCCCn1ccnc1)c1ccc2nc(N3CCC4(CC3)OCCO4)c(-c3ccccc3)nc2c1 [Compound I-275] | < 100 nM | 99% | 0% |  |  |
| Cn1cnc(CCNC(=O)c2ccc3nc(-c4ccc(F)cc4)c(-c4ccc(F)cc4)nc3c2)c1 [Compound I-276, 2,3-bis(4-fluorophenyl)-N-[2-(1-methyl-1H-imidazol-4-yl)ethyl]quinoxaline-6-carboxamide] | 1000 to 2000 nM | 38% | 90% |  |  |
| O=C(NCCCc1ncc[nH]1)c1ccc2nc(N3CCC4(CC3)COC4)c(-c3ccc(F)cc3)nc2c1 [Compound I-277, 3-(4-Fluorophenyl)-N-[3-(1H-imidazol-2-yl)propyl]-2-(2-oxa-7-azaspiro[3.5]non-7-yl)quinoxaline-6-carboxamide] | < 100 nM |  |  | 99% | 2% |
| CCN(CC)c1nc2cc(C(=O)NCCCn3ccnc3)ccc2nc1-c1ccccc1 [Compound I-278, 3-(diethylamino)-N-[3-(1H-imidazol-1-yl)propyl]-2-phenylquinoxaline-6-carboxamide] | 2000 to 10000 nM | 15% | 98% |  |  |
